Experimental findings from ChEMBL document CHEMBL6109095, “Impact of fixed phosphorus position on activity of triazole bisphosphonates as geranylgeranyl diphosphate synthase inhibitors” (Bioorg Med Chem, 2025) are described below.

The structures appear in SMILES notation. Active and inactive are the calls of the source. The rule behind the calls is not given here.

Data set [1] deals with T1, Geranylgeranyl pyrophosphate synthase (Homo sapiens, UniProt O95749).
T1 sequence (O95749 whole entry): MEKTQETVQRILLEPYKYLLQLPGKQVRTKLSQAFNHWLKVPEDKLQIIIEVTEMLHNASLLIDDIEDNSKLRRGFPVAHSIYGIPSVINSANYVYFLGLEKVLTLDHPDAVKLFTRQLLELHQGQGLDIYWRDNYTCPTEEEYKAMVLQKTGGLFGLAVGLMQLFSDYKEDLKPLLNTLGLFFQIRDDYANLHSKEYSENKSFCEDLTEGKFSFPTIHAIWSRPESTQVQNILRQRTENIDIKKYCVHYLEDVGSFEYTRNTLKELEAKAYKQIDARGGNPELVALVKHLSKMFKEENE
The experiment in a line: Inhibition of recombinant GGDPS (unknown origin) using [14C] IPP and FPP as substrate preincubated for 10 mins followed by substrate addition and measured after 30 mins by scintillation counting method.

The target of data set [2] is T2, Geranylgeranyl pyrophosphate synthase (Homo sapiens) (UniProt O95749).
T2 sequence (whole entry): T1 sequence (O95749 whole entry)
The experiment in a line: Inhibition of GGDPS in human RPMI-8226 cells assessed as lowest effective concentration required to show unmodified Rap1a band measured after 48 hrs by immunoblot analysis. Type of data set: cell-based. (In general: Immunoblotting shows a protein as a band on a membrane.)

Data set [3] has as its target T2, Geranylgeranyl pyrophosphate synthase (Homo sapiens). The data set is described as follows: Inhibition of GGDPS in human RPMI-8226 cells assessed as lowest effective concentration required for increase in intracellular lambda chain level after 48 hrs by ELISA. Format: cell-based. A general note: An ELISA detects its analyte on a solid surface through an enzyme-linked reagent.

Data set [4] has the same target. The experiment in a line: Inhibition of GGDPS in human MG-63 cells assessed as appearance of unmodified Rap1a band at 0.1 to 1 uM measured after 48 hrs by immunoblot analysis. To be noted: dose 0.1-1 µM. Format: cell-based.
Data set [5] has the same target. The data set is described as follows: Inhibition of GGDPS in human 143B cells assessed as appearance of unmodified Rap1a band at 0.1 to 1 uM measured after 48 hrs by immunoblot analysis. Format: cell-based. The settings on record: dose 0.1-1 µM.
Data set [6] shares this target. The data set is described as follows: Inhibition of GGDPS in human SAOS-2 cells assessed as appearance of unmodified Rap1a band at 0.1 to 1 uM measured after 48 hrs by immunoblot analysis. Type of data set: cell-based. The settings on record: dose 0.1-1 µM.
The target is the same in data set [7]. The experiment in a line: Inhibition of GGDPS in human SAOS-2 cells assessed as lowest effective concentration required to show unmodified Rap1a band measured after 48 hrs by immunoblot analysis. Type of data set: cell-based.
Data set [8] has the same target. The data set is described as follows: Inhibition of GGDPS in human 143B cells assessed as lowest effective concentration required to show unmodified Rap1a band measured after 48 hrs by immunoblot analysis. Type of data set: cell-based.
For data set [9] the target is unchanged. The data set is described as follows: Inhibition of GGDPS in human MG-63 cells assessed as lowest effective concentration required to show unmodified Rap1a band measured after 48 hrs by immunoblot analysis. Format: cell-based.
Data set [10] has the same target. The data set is described as follows: Inhibition of GGDPS in human MM1.S cells assessed as appearance of unmodified Rap1a band at 1 to 100 uM measured after 48 hrs by immunoblot analysis. Type of data set: cell-based. The settings on record: dose 1-100 µM.
The nature of data set [11]: Apparent permeability of the compound by PAMPA. Format: ADME.
For data set [12], the target named is T2, Geranylgeranyl pyrophosphate synthase (Homo sapiens). The experiment in a line: Inhibition of GGDPS in human MM1.S cells assessed as appearance of unmodified Rap1a band measured after 48 hrs by immunoblot analysis. Format: cell-based.
The target is the same in data set [13]. The data set is described as follows: Inhibition of GGDPS in human RPMI-8226 cells assessed as appearance of unmodified Rap1a band up to 100 uM measured after 48 hrs by immunoblot analysis. Type of data set: cell-based.
The target is the same in data set [14]. The experiment in a line: Inhibition of GGDPS in human RPMI-8226 cells assessed as increase in intracellular lambda chain level up to 100 uM after 48 hrs by ELISA. Type of data set: cell-based.
For data set [15] the target is unchanged. The data set is described as follows: Inhibition of GGDPS in human MM1.S cells assessed as lowest effective concentration required to show unmodified Rap1a band measured after 48 hrs by immunoblot analysis. Format: cell-based.
For data set [16], the system named is RPMI-8226. The experiment in a line: Cytotoxicity against human RPMI-8226 cells assessed as reduction in cell viability up to 10 uM measured after 48 hrs by MTT assay. Format: functional, cell-based. In general terms: Tetrazolium dyes change colour on reduction, which living cells bring about.
In data set [17] the test system is 143B. The experiment in a line: Cytotoxicity against human 143B cells assessed as reduction in cell viability up to 10 uM measured after 48 hrs by MTT assay. Format: functional, cell-based.

In the case of `CC(C)=CCC/C(C)=C\CCn1cc(C2OC2(P(=O)(O)O)P(=O)(O)O)nn1` (stereo unspecified), in [1], the IC50 (as a rule, the midpoint of a concentration-inhibition curve) came out at 2360 nM. For the same compound, the LED in data set [2] and in data set [3] was 2.5 µM in each case. In addition, the inhibition entry in data set [4], in data set [5] and in [6] was “Active” throughout.
As for `CC(C)=CCCC(C)=CCn1cc(C=C(P(=O)(O)O)P(=O)(O)O)nn1`, the LED in [2] and in [3] was 0.25 µM in each case.
In the case of `CC(C)=CCCC(C)CCCn1cc(CC(P(=O)(O)O)P(=O)(O)O)nn1` (stereo unspecified), in [1], the IC50 was found to be 25100 nM. The LED in data set [2] and in data set [3] was 10 µM throughout.
`CC(C)=CCC/C(C)=C/CCn1cc(CC(P(=O)(O)O)P(=O)(O)O)nn1`: the LED in [2] and in data set [3] was 0.09 µM each time.
Take `CC(C)=CCCC(C)=CCCn1cc(CC(P(=O)(O)O)P(=O)(O)O)nn1`: the LED in data set [2] and in data set [3] was 0.03 µM each time.
Consider `CC(C)=CCC/C(C)=C\CCn1cc(C2CC2(P(=O)([O-])[O-])P(=O)([O-])[O-])nn1.[Na+].[Na+].[Na+].[Na+]` (stereo unspecified), for which the IC50 in data set [1] amounted to 2870 nM. The LED in data set [2] is 100 µM; in data set [3], 100 µM; in data set [7], 50 µM; in data set [8], 50 µM; in [9], 50 µM. Further, the inhibition entry in [10] was “Not active; No Appreciable Activity Observed”. For the same compound, in data set [11], the Papp is recorded as 0.283 10^-6 cm/s.
Take `CC(C)=CCC/C(C)=C/CCn1cc(C2CC2(P(=O)(OCOC(=O)C(C)(C)C)OCOC(=O)C(C)(C)C)P(=O)(OCOC(=O)C(C)(C)C)OCOC(=O)C(C)(C)C)nn1` (stereo unspecified): the LED in [2], in data set [3], in data set [7], in [8] and in [9] was 5 µM each time. Further, the inhibition result in [12] was “Not active; No Evidence Of Disruption Of Geranylgeranylation Was Observed”.
In the case of `CC(C)=CCCC(C)=CCn1cc(CC(P(=O)(O)O)P(=O)(O)O)nn1`, the LED in data set [2] and in [3] was 0.5 µM in each case.
As for `CC(C)=CCC/C(C)=C/CCn1cc(C2OC2(P(=O)(O)O)P(=O)(O)O)nn1` (stereo unspecified), in [1], the IC50 turned out to be 450 nM. In addition, the inhibition entry in data set [13] and in data set [14] was “inactive” each time. Further, the inhibition entry in data set [4], in [5] and in data set [6] was “Active” each time.
Take `CC(C)=CCC/C(C)=C\CCn1cc(CC(C)(P(=O)(O)O)P(=O)(O)O)nn1`: the LED in [2] turned out to be 0.025 µM.
`CC(C)=CCC/C(C)=C/CCn1cc(CC(C)(P(=O)(O)O)P(=O)(O)O)nn1`: the LED in data set [2] and in data set [3] was 0.02 µM throughout.
Turning to `CC(C)=CCC/C(C)=C/CCn1cc(C=C(P(=O)(O)O)P(=O)(O)O)nn1`, the IC50 in data set [1] worked out at 400 nM. Also, the LED in [2] was found to be 0.25 µM; in data set [3], 0.25 µM; in data set [15] it was 0.25 µM; in [7] it was 0.01 µM; in [8] it was 0.25 µM; in data set [9], 0.25 µM. Moreover, the result in data set [16] and in [17] was Active.
As for `CC(C)=CCCC(C)=CCn1cc(C2CC2(P(=O)(O)O)P(=O)(O)O)nn1` (stereo unspecified), the LED in data set [2] and in data set [3] was 0.5 µM each time.
Take `CC(C)=CCC/C(C)=C/CCn1cc(C2CC2(P(=O)([O-])[O-])P(=O)([O-])[O-])nn1.[Na+].[Na+].[Na+].[Na+]` (stereo unspecified): the IC50 in data set [1] turned out to be 890 nM. Also, the LED in data set [2] was determined as 100 µM; in [3] it was 100 µM; in [7], 5 µM; in data set [8], 5 µM; in data set [9], 5 µM. For the same compound, the inhibition result in data set [10] was “Not active; No Appreciable Activity Observed”. Also, the Papp in data set [11] is reported as 0.061 10^-6 cm/s.
Regarding `CC(C)=CCCC(C)CCCn1cc(C=C(P(=O)(O)O)P(=O)(O)O)nn1` (stereo unspecified), the IC50 in data set [1] is greater than 100000 nM. Also, the LED in [2] and in [3] was 50 µM in each case.
In the case of `CC(C)=CCC/C(C)=C\CCn1cc(C=C(P(=O)(O)O)P(=O)(O)O)nn1`, in [1], the IC50 was 370 nM. Further, the LED came to 0.25 µM in [2]; 0.25 µM in [3]; 0.25 µM in data set [15]; 0.01 µM in data set [7]; 0.25 µM in [8]; 0.25 µM in data set [9]. The outcome in [16] and in [17] was Active.
As for `CC(C)=CCCC(C)CCCn1cc(C2CC2(P(=O)(O)O)P(=O)(O)O)nn1` (stereo unspecified), in data set [1], the IC50 was greater than 100000 nM. In addition, the inhibition result in data set [13] and in [14] was “inactive” in each case.
Consider `CC(C)=CCCC(C)=CCn1cc(C2OC2(P(=O)(O)O)P(=O)(O)O)nn1` (stereo unspecified), for which the IC50 in data set [1] was 11000 nM. Also, the LED in data set [2] amounted to 5 µM; in data set [3], 5 µM; in data set [15], 5 µM; in [7] it was 0.5 µM; in data set [8], 5 µM; in data set [9] it was 5 µM.
